# According to US20100168406A1, “USE OF GINSENOSIDE Rb2 MONOMER IN THE MANUFACTURE OF MEDICAMENTS FOR THROMBOLYSIS” (priority 2006, published 2010):
# How the values were obtained:
# thrombi = experiment: In vitro thrombolytic effect on capillary thrombi (24 h, 37° C.); format: biochemical, Wistar rats
# Procedure: Nine female Wistar rats were used. Blood samples were taken from postorbital venous plexus using hard neutral glass capillary, 4 capillaries for each rat and 36 capillaries in total. The capillaries which contained the blood samples were left over night and the thrombi were then removed. The 4 thrombus samples of each rat were placed into test tubes containing 1 ml NS solution, 1000 U urokinase in 1 ml NS solution, 1 mg Rb2 (80%) in 1 ml NS solution and 1 mg Rb2 (98%) in 1 ml NS solution, respectively. All the test tubes were placed into a water bath at a temperature of 37° C. with shaking at an interval of 30 minutes. 24 hours later, the solutions were decanted, the remaining thrombi were weighed and the thrombolysis rate was calculated. Thrombolysis rate=(starting weight of thrombus−remaining weight of thrombus)/starting weight of thrombus×100%
# mice = experiment: Effect of Rb2 (~60%) on auricle microcirculation in mice; format: in vivo; details: 120 mg/10 ml/kg intragastric for 3 days, 30 minutes after last administration
# Procedure: 20 mice, 10 male and 10 female, were randomly divided into the control group and the administration group. Animals in the administration group received intragastric administration of Rb2 at 120 mg/10 ml/kg for 3 days. Animals in the control group were given water of the same volume. The calibers, flow rate and flow pattern of V3 grade arteriole and venule were determined 30 minutes after the last administration. The data obtained from the study was subjected to t-test between groups.
# KunMing mice [1] = experiment: Auricle microcirculation in mice with Isoprel-induced acute myocardial necrosis; format: in vivo; details: 40 mg/kg intraperitoneal Day 1-7, Isoprel 7.5 mg/kg sc Day 5 and 6, 30 min after last dose
# Procedure: (§1) 20 KunMing mice, 10 male and 10 female, were randomly divided into the control group and the administration group. The control group received intraperitoneal injection of physiological saline from Day 1 to Day 7 and subcutaneous injection of Isoprel at a dosage of 0.3 ml (7.5 mg/kg) on Day 5 and Day 6. The ginsenoside monomer Rb2 administration group received intraperitoneal injection of ginsenoside monomer Rb2 at a dosage of 40 mg/kg for 4 consecutive days; subcutaneous injection of Isoprel at a dosage of 0.3 ml (7.5 mg/kg) followed by intraperitoneal injection of ginsenoside monomer Rb2 at a dosage of 40 mg/kg on Day 5; intraperitoneal injection of ginsenoside monomer Rb2 at a dosage of 40 mg/kg followed by subcutaneous injection of Isoprel on Day 6. On Day 7, 30 min after intraperitoneal injection of ginsenoside monomer Rb2, the auricle microcirculation was determined. The data obtained from the study were subjected to t-test between groups.
# KunMing mice [2] = experiment: Degree of cardiomyopathy (HE staining of heart) in Isoprel-induced acute myocardial necrosis; format: in vivo; details: 40 mg/kg intraperitoneal, Isoprel-treated mice, of 10 animals
# Procedure: as §1
# After the determination of auricle microcirculation, animals were sacrificed and heart samples were removed for HE staining for microscopic examination. The samples were classified according to the grading standards for cardiomyopathy.
# Wistar rats = experiment: Reperfusion injury after bilateral common carotid artery clamping, morphological examination of cerebral tissue; format: in vivo; details: Rb2 purity 90%, 10 mg/kg iv after reperfusion, brains examined 1 hour after administration
# Procedure: Male Wistar rats weighing 300±20 g were supplied by the Animal Office of Tianjin Institute of Pharmaceutical Research.
# Rb2 was prepared with NS in a ratio of […] for intravenous injection in rats before use.
# 30 rats were randomly divided into 3 groups with 10 rats in each group. The sham operation group received (iv) physiological saline, the model group received (iv) physiological saline and the Rb2 (with a purity of 90%) group received (iv) 10 mg/kg. All groups were administered through intravenous injection after reperfusion injury.
# The rats were weighed at the time of experiment. They were anaesthetized by urethane (lg/kg) through intraperitoneal injection, laid on their back on the operation table, and cut in the middle of the neck. The common carotid arteries on both sides were dissected and clamped using small-sized artery clamps. 2 hours later, the clamps were loosened to restore blood supply, and the animals were given intravenous administration immediately. The rats were decapitated 1 hour after the administration, the brains were removed and placed into a 10% formaldehyde solution for fixation, followed by morphological examination of the cerebral tissue.
# blood clots = experiment: In vitro thrombolytic effect on rat blood clots (6 h, 37° C.); format: biochemical, rats
# Procedure: Rats used in the study were anaesthetized by urethane. Blood samples were taken from abdominal aorta, placed in plastic tubes, and were removed after 24 hours of coagulation. The blood clot was semi-blotted with filter paper and cut into pieces. 90 to 120 mg blood clots were accurately weighed and put into test tubes, to which NS, an Rb2 solution of 200 μg/ml, 100 μg/ml, or 50 μg/ml, or a urokinase solution of 50 U/ml, in a volume of 1 ml was added, respectively, and were then placed into a thermostatic horizontal shaking bath at a temperature of 37° C. and with a shaking frequency of 90 times/min for 6 hours. The undissolved blood clots were removed and weighed after semi-blotting with filter paper. The relative thrombolysis rate was calculated. SPSS 10.0 statistical software was used to perform t test among groups.
# [3] = system: arteriovenous shunt thrombus in rats; experiment: Arteriovenous shunt thrombosis method, in vivo thrombolytic effect; set-up: species or system Winstar rats; details: femoral vein injection given twice
# Procedure: Arteriovenous shunt thrombosis method was applied in Winstar rats to observe the inhibition of thrombosis in rats. Under intraperitoneal anesthesia with mebumal sodium, a polyethylene tube penetrated by a silk thread was placed between the right common carotid artery and the left external jugular vein, to allow blood flow through the thread for 15 min. Upon formation of a thrombus, the test agents were injected into femoral vein, and again after an interval of 15 min, both of the same dosage. 45 min post administration, the silk thread was removed rapidly and weighed. Subtraction of the weight of silk thread from the total weight yielded the weight of the thrombus (mg). The thrombus was dried in an oven at a temperature of 60° C. for 4 hours, so as to give the dry weight (mg) of the thrombus.
molecule,measurement,setting,value
"CC(C)=CCC[C@](C)(O[C@@H]1O[C@H](CO[C@@H]2OC[C@H](O)[C@H](O)[C@H]2O)[C@@H](O)[C@H](O)[C@H]1O)[C@H]1CC[C@]2(C)[C@@H]1[C@H](O)C[C@@H]1[C@@]3(C)CC[C@H](O[C@@H]4O[C@H](CO)[C@@H](O)[C@H](O)[C@H]4O[C@@H]4O[C@H](CO)[C@@H](O)[C@H](O)[C@H]4O)C(C)(C)[C@@H]3CC[C@]12C [Rb2 (98%), ginsenoside Rb2]",Final weight of thrombus,thrombi; 1 mg/ml in NS,5.5 ± 3.2 mg
same,Thrombolysis rate %,thrombi; 1 mg/ml in NS,71.5%
"CC(C)=CCC[C@](C)(O[C@@H]1O[C@H](CO[C@@H]2OC[C@H](O)[C@H](O)[C@H]2O)[C@@H](O)[C@H](O)[C@H]1O)[C@H]1CC[C@]2(C)[C@@H]1[C@H](O)C[C@@H]1[C@@]3(C)CC[C@H](O[C@@H]4O[C@H](CO)[C@@H](O)[C@H](O)[C@H]4O[C@@H]4O[C@H](CO)[C@@H](O)[C@H](O)[C@H]4O)C(C)(C)[C@@H]3CC[C@]12C [Rb2, ginsenoside Rb2]",Input branch,mice,36.42 ± 0.81[…] um/s
same,Output branch,mice,65.77 ± 3.14 um/s
same,Thrombolysis rate %,"thrombi; 1 mg/ml in NS, listed as Ginsenoside monomer Rb2",≥ 70%
same,Blood flow velocity,KunMing mice [1],238 ± 22.59 um/s
same,Caliber of artery,KunMing mice [1],39.08 ± 1.80 um
same,Caliber of vein,KunMing mice [1],59.9 ± 3.58 um
same,"Degree of cardiomyopathy +++, number of animals",KunMing mice [2],1
same,"Degree of cardiomyopathy ++, number of animals",KunMing mice [2],2
same,"Degree of cardiomyopathy +, number of animals",KunMing mice [2],3
same,"Degree of cardiomyopathy −, number of animals",KunMing mice [2],4
same,Pathological changes of cerebral edema and cerebral ischemia vs model control group,Wistar rats,alleviated remarkably
same,Relative thrombolysis %,blood clots; 50 μg/ml,27.4 ± 8.3 %
same,Weight of blood clot After lysis,blood clots; 50 μg/ml,78.9 ± 17.8 mg
same,Relative thrombolysis %,blood clots; 100 μg/ml,28.0 ± 9.1 %
same,Weight of blood clot After lysis,blood clots; 100 μg/ml,81.4 ± 13.4 mg
same,Relative thrombolysis %,blood clots; 200 μg/ml,27.1 ± 9.1 %
same,Weight of blood clot After lysis,blood clots; 200 μg/ml,81.8 ± 13.4 mg
same,Dry weight of thrombus,"[3]; Rb2 purity 93.9%, 2.5 mg/kg",8.50 ± 1.91 mg
same,Inhibition % (dry weight of thrombus),"[3]; Rb2 purity 93.9%, 2.5 mg/kg",15.59%
same,Inhibition % (wet weight of thrombus),"[3]; Rb2 purity 93.9%, 2.5 mg/kg",8.71%
same,Wet weight of thrombus,"[3]; Rb2 purity 93.9%, 2.5 mg/kg",31.75 ± 8.54 mg
same,Dry weight of thrombus,"[3]; Rb2 purity 93.9%, 5 mg/kg",6.60 ± 1.35 mg
same,Inhibition % (dry weight of thrombus),"[3]; Rb2 purity 93.9%, 5 mg/kg",34.46%
same,Inhibition % (wet weight of thrombus),"[3]; Rb2 purity 93.9%, 5 mg/kg",34.73%
same,Wet weight of thrombus,"[3]; Rb2 purity 93.9%, 5 mg/kg",22.70 ± 4.94 mg
same,Dry weight of thrombus,"[3]; Rb2 purity 93.9%, 10 mg/kg",6.87 ± 1.73 mg
same,Inhibition % (dry weight of thrombus),"[3]; Rb2 purity 93.9%, 10 mg/kg",31.72%
same,Inhibition % (wet weight of thrombus),"[3]; Rb2 purity 93.9%, 10 mg/kg",23.43%
same,Wet weight of thrombus,"[3]; Rb2 purity 93.9%, 10 mg/kg",26.63 ± 5.04 mg
Urokinase [reference compound],Final weight of thrombus,thrombi; 1000 U/ml in NS,0 mg
same,Thrombolysis rate %,thrombi; 1000 U/ml in NS,100%
same,Relative thrombolysis %,blood clots; 50 U/ml,32.7 ± 10.0 %
same,Weight of blood clot After lysis,blood clots; 50 U/ml,73.8 ± 11.3 mg
same,Dry weight of thrombus,[3]; 5000 U (5000 U/kg),6.62 ± 1.85 mg
same,Inhibition % (dry weight of thrombus),[3]; 5000 U (5000 U/kg),34.26%
same,Inhibition % (wet weight of thrombus),[3]; 5000 U (5000 U/kg),25.37%
same,Wet weight of thrombus,[3]; 5000 U (5000 U/kg),25.37 ± 6.37 mg
